Laboratory results as given in patent US9226929B2, “Pharmaceutically active disubstituted triazine derivatives” (Bayer Intellectual Property GMBH, priority 2011, dated 2016).
pIC50, pKd: −log10 of the molar value.

What was measured:
CDK9/Cyclin K = target: T1, CDK9/Cyclin K (Homo sapiens, UniProt P50750); assay: LanthaScreen Eu Kinase Binding Assay, CDK9/Cyclin K; details: tracer 236, read-out: CDK9/Cyclin K (activity range), Kd
T1 construct: His; purchased Invitrogen
How it was run: (§1)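 TR-FRET displacement of an Alexa Fluor 647 active-site tracer, detected with a Eu anti-GST antibody, over an 8-point 1:3 compound series. Tracer was set at its Kd (30 nM for CDK2/Cyclin A, CDK7 and CDK9/Cyclin T1; 35 nM for CDK9/Cyclin K). Read after 1 h at room temperature; Kd was fitted from sigmoidal curves.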

CDK9/Cyclin T1 = target: T2, CDK9/Cyclin T1 (Homo sapiens, UniProt P50750); assay: LanthaScreen Eu Kinase Binding Assay, CDK9/Cyclin T1; details: tracer 236, read-out: CDK9/Cyclin T1 (activity range), Kd
T2 construct: His; purchased Invitrogen
How it was run: as §1

Hela cells = assay: Cell Viability Assay, Hela cells; assay type: cell-based; details: Homo sapiens, 72 h, Cell Titer Glo, read-out: Cell Viability - Hela cells (activity range), IC50
Procedure: (§2) 3.4 Cell Viability Assays
(§3) Hela- or MDAMB468-Cells were maintained in RPMI 1640 or McCoy's 5A cell culture medium+glutamine (PAN Biotech GmbH, Aidenbach, Germany; order no. PO4-22100; PO4-05500) supplemented with 10% fetal calf serum “Gold” (PAA Laboratories GmbH, Pasching, Austria; order no. A15-151) and grown at 37° C., 5% CO2. For the cell viability assay, cells were seeded with a density of 400 (Hela cells, DSMZ Braunschweig order no. ACC57) or 800 (MDAMB468 cells, ATCC order no. HTB-132) per well in 25 μL in 384-well plates (Greiner Bio-One, Frickenhausen, Germany; order no. 781080). After overnight incubation at 37° C./5% CO2, 25 nL or 75 nL compound were added to each sample well by using BIOMEK FXP Laboratory Automation Workstation (Beckman Coulter, USA). Wells with cells and 0.1% or 0,3% DMSO in culture medium were used as positive controls, wells with cells and 10 μM staurosporine in culture medium were used as negative controls. The cells were incubated with the compounds for 72 h at 37° C./5% CO2. For measurement of cell viability 25 μL Cell Titer Glo reagent (Promega, Madison, USA; order no. G7573), 1:2 diluted with cell culture medium, was added to each well. The 384we11-plates were placed for 2 min on a orbital microplate shaker and incubated for further 10 min at room temperature to stabilize the luminescence signal.
(§4) Luminescence was measured by Envision Plate Reader (Perkin Elmer, USA). IC50 values were calculated with the software Excel Fit (IDBS, Guildford, UK) from 3-fold dilution series comprising at least 8 concentrations in duplicates.

CDK7/CyclinH/MAT1 = target: T3, CDK7/CyclinH/MAT1 (Homo sapiens, UniProt P50613); assay: LanthaScreen Eu Kinase Binding Assay, CDK7; details: tracer 236, read-out: CDK7 (activity range), Kd
T3 construct: His; purchased Carna Biosciences
How it was run: as §1

CDK2/CyclinA = target: T4, CDK2/CyclinA (Homo sapiens, UniProt P24941); assay: LanthaScreen Eu Kinase Binding Assay, CDK2; details: tracer 236, read-out: CDK2 (activity range), Kd
T4 construct: GST; purchased Proqinase
Procedure: This protocol describes how the LanthaScreen Eu Kinase Binding Assay was performed to determine dissociation constants (Kd) of compounds of general formula (I) and CDK/Cyclin complexes. The principle behind this assay is based upon the binding and displacement of an Alexa Fluor 647-labeled tracer, which binds to the active site of kinases. Binding of the tracer to the kinase is detected using a Eu-labeled antibody. Simultaneous binding of both the tracer and antibody to the kinase gives rise to a FRET-signal. Binding of an inhibitor to the kinase competes for binding with the tracer, resulting in a loss of FRET.
The compounds of general formula (I) summarized in Table 1 were diluted from a 10 mM DMSO stock solution 1:10 in a total volume of 15 μL DMSO. This compound predilution was then serial diluted 1:3 over 8 steps in DMSO and briefly spun down. Each compound solution was now diluted 1:33.33 in kinase buffer (HEPES: 20 mM, pH: 8.0; MgCl2: 10 mM; DTT: 1 mM; Brij-35: 0,01%), mixed thoroughly and spun down. For every sample, 5 μL of the diluted compound were mixed with 5 μL tracer working solution (e.g. 60 nM tracer 236 in kinase buffer for CDK2/Cyclin A) and 5 μL CDK/Cyclin/Anti-GST-AB-working solution (e.g. 15 nM CDK2/Cyclin A, 1:250 dilution of Anti-GST-AB in kinase buffer) in a well of a small volume 384 well plate (Corning Incorporated, Corning, N.Y., USA; order no. 3673). The tracer concentration was adjusted to its dissociation constant (Kd) for the CDK/Cyclin, which was 30 nM for CDK2/Cyclin A, CDK7/Cyclin H and CDK9/Cyclin T1, 20 nM for CDK8/Cyclin C, and 35 nM for CDK9/Cyclin K. For negative controls, in each well 5 μL of DMSO working solution (3% DMSO diluted in kinase buffer) was mixed with 5 μL Anti-GST-AB working solution (e.g. 1:250 dilution of Anti-GST-AB in kinase buffer for CDK2/Cyclin A) and 5 μL Tracer working solution (e.g. 60 nM Tracer 236 in kinase buffer for CDK2/Cyclin A). For positive controls, in each well 5 μL of DMSO working solution (3% DMSO diluted in kinase buffer) was mixed with 5 μL CDK/Cyclin/Anti-GST-AB-working solution: (e.g. 15 nM CDK2/Cyclin A, 1:250 dilution of Anti-GST-AB in kinase buffer) and 5 μL Tracer working solution (e.g. 60 nM Tracer 236 in kinase buffer for CDK2/Cyclin A). Positive and negative controls were calculated from at least 8 different sample wells. The 384 well plates were mixed in a Teleshaker plate mixer (Beckman Coulter, Brea, Calif., USA) at 2000 rpm for 40 sec, and incubated for 1 h at room temperature before reading. The FRET signal was measured at 340 nm excitation, 665 nm and 615 nm emission (for the kinase tracer and LanthaScreen Eu-AB, respectively) with an Envision spectrophotometer (Perkin Elmer, Waltham, Mass., USA) with […]. Kd values were determined from the sigmoidal dose response curves with the software Quattro Workflow (Quattro GmbH, Munich, Germany).

MDAMB468 cells = assay: Cell Viability Assay, MDAMB468 cells; assay type: cell-based; details: Homo sapiens, MDA-MB-468; 72 h, Cell Titer Glo; read-out: Cell Viability - MDAMB468 cells (activity range), IC50
Procedure: as §2, §3, §4

T3 sequence (P50613 whole entry): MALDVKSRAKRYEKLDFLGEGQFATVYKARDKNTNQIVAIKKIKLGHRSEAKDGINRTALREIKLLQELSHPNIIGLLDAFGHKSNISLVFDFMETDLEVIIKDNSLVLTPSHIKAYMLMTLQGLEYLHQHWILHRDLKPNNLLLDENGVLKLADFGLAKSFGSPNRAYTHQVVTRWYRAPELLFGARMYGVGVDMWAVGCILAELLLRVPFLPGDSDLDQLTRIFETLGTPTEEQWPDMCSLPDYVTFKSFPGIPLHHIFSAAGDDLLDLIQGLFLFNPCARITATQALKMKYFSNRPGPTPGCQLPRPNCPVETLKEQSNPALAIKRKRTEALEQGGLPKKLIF
T3 sequence (P51946 whole entry partner): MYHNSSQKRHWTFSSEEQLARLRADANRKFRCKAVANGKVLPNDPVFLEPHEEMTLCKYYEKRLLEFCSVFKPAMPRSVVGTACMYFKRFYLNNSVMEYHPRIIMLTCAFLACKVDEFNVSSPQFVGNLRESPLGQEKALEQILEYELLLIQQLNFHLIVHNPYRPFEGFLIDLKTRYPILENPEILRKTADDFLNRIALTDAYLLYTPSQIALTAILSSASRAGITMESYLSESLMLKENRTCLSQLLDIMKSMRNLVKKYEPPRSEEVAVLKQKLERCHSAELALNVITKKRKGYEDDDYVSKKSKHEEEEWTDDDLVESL
T3 sequence (P51948 whole entry partner): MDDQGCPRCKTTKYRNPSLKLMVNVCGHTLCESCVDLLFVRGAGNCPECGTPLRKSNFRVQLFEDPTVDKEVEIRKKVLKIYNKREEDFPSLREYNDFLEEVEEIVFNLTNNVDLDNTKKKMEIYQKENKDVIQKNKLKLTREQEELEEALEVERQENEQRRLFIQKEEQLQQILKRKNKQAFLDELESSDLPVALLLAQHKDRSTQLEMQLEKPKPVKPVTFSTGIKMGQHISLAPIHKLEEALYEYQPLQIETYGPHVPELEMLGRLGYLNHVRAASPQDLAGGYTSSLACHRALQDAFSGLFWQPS
T2 sequence (P50750 whole entry): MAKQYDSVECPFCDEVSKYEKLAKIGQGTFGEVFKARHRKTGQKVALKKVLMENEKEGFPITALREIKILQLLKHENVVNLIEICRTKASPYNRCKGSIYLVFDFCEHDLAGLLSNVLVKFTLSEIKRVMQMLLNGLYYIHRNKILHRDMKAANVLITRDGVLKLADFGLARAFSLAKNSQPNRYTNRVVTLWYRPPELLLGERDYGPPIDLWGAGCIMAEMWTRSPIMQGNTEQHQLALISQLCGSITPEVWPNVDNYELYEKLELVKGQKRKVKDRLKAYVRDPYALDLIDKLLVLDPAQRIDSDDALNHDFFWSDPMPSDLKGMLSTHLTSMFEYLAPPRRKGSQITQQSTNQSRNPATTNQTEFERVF
T2 sequence (O60563 whole entry partner): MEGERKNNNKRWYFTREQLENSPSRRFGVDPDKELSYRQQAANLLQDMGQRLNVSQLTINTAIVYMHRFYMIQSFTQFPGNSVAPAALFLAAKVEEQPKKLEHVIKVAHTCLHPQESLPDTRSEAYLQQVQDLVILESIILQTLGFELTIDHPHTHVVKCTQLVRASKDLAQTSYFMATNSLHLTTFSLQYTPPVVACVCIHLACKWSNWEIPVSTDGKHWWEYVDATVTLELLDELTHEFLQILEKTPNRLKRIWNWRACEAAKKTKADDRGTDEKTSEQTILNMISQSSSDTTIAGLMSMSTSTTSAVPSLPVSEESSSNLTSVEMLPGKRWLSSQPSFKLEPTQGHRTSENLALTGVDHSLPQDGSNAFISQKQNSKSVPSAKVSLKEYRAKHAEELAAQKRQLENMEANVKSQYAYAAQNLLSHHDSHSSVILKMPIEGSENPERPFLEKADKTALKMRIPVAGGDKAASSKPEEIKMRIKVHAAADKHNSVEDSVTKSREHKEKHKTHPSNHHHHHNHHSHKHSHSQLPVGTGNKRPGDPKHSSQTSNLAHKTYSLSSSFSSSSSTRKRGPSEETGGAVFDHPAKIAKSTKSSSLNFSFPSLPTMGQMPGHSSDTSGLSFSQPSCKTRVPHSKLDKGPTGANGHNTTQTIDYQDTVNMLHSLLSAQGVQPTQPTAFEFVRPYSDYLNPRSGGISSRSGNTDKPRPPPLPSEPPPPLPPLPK
T1 sequence (P50750 whole entry): as the sequence (P50750 whole entry) above
T1 sequence (O75909 1-357 isoform O75909-1 partner): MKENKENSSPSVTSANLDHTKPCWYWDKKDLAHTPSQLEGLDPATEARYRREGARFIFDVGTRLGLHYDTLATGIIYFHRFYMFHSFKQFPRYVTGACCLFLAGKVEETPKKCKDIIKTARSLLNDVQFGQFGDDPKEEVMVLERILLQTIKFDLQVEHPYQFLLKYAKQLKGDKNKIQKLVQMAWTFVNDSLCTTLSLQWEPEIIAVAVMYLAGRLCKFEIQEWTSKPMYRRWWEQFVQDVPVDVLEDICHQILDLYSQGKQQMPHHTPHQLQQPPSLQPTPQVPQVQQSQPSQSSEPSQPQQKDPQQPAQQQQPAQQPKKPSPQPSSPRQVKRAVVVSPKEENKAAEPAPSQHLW

## NS(=O)(=O)Cc1cccc(Nc2ncnc(N3Cc4ccncc4C3)n2)c1 [Compound B49, 3-[(4-(1H-Pyrrolo[3,4-c]pyridin-2(3H)-yl)-1,3,5-triazin-2-yl)amino]-benzenemethanesulfonamide]
CDK9/Cyclin K
  pKd: > 7.00
CDK9/Cyclin T1
  pKd: > 7.00
Hela cells
  pIC50: < 5.00
CDK7/CyclinH/MAT1
  pKd: < 5.00
CDK2/CyclinA
  pKd: 6.00 to 7.00
MDAMB468 cells
  pIC50: < 5.00
